In experiment [1] the target is T1, His-tagged PhoQ (Salmonella enterica, UniProt P0DM80).
T1 construct: 6xHis-tagged PhoQ, no truncation stated, in membrane extracts of E. coli DH5alpha; anti-His read-out; dimeric histidine kinase
As to the kind of experiment: Phos-tag gel autophosphorylation, membrane extract, anti-His blot. The experiment is classed as biochemical. The note with it: with ATP, in vitro.

Experiment [2] concerns the target periplasmic sensor domain of PhoQ (PhoQ^SD), His-tagged, S. Enteritidis (Salmonella Enteritidis). As to the kind of experiment: native gel or EMSA; native-PAGE of PhoQ^SD expressed in E. coli BL21; data not shown. (A gel shift assay detects complexes by their altered migration in electrophoresis.)
For experiment [3], the target named is T2, PhoQ^SD (periplasmic sensor domain of PhoQ) (Salmonella enterica, UniProt P0DM80).
T2 construct: periplasmic sensor domain (residues 45-188 as aligned; exact construct borders in supplement), His-tagged, pET28a, E. coli BL21, Ni-NTA purified, dimer by native-PAGE
As to the kind of experiment: microscale thermophoresis. The experiment is classed as binding. An excerpt: microscale thermophoresis on PhoQ^SD (periplasmic sensor domain of PhoQ) | NAL, CAZ, or ofloxacin, we also obtained well-fitted curves
In general terms: Microscale thermophoresis detects binding through changes in fluorescence in a small temperature gradient.

Experiment [4] has as its target T2, PhoQ^SD (periplasmic sensor domain of PhoQ). As to the kind of experiment: differential scanning calorimetry. The experiment is classed as binding. The note with it: 20 μM protein, 100 μM ligand, 10 mM sodium phosphate pH 7.4; Tm of complex, apo Tm 52.29 °C.

Where two headings read alike, the source gives them in different places.

Turning to `CO/N=C(\C(=O)N[C@@H]1C(=O)N2C(C(=O)O)=C(CSc3nc(=O)c(=O)[nH]n3C)CS[C@H]12)c1csc(N)n1` [ceftriaxone], the “Phos-tag gel autophosphorylation, membrane extract, anti-His blot” value (“Phos-tag gel autophosphorylation” below) in experiment [1] was “cephalosporins (ceftazidime, ceftriaxone, and cefepime) or ATP”. In experiment [2], “periplasmic sensor domain of PhoQ (PhoQ^SD), His-tagged, S. Enteritidis (domain or fragment)” had a stoichiometry N of 2. Turning to `O=C(O)c1cn(C2CC2)c2cc(N3CCNCC3)c(F)cc2c1=O` [ciprofloxacin], the “Phos-tag gel autophosphorylation” value in experiment [1] is “treated with quinolones (nalidixic acid, ciprofloxacin, and ofloxacin)”.

On to `CC(C)(O/N=C(\C(=O)N[C@@H]1C(=O)N2C(C(=O)[O-])=C(C[n+]3ccccc3)CS[C@H]12)c1csc(N)n1)C(=O)O` [ceftazidime], for which the Kd in experiment [3] is 25.6 ± 13.4 µM. In addition, in experiment [4], the Tm stood at 50.54 °C. `CO/N=C(\C(=O)N[C@@H]1C(=O)N2C(C(=O)[O-])=C(C[N+]3(C)CCCC3)CS[C@H]12)c1csc(N)n1` [cefepime]: the “Phos-tag gel autophosphorylation” value in experiment [1] is “cephalosporins (ceftazidime, ceftriaxone, and cefepime) or ATP”. Consider `CC1COc2c(N3CCN(C)CC3)c(F)cc3c(=O)c(C(=O)O)cn1c23` (stereo not drawn) [ofloxacin], for which the equilibrium dissociation constant (Kd) in experiment [3] (read-out: Kd) came to 33.1 ± 28.3 µM. For the compound `CCn1cc(C(=O)O)c(=O)c2ccc(C)nc21` [nalidixic acid], the equilibrium dissociation constant (Kd) in experiment [3] came to 24.7 ± 4.3 µM. The Tm in experiment [4] came out at 51.00 °C.

In general, stoichiometry N refers to a count of units in the complex or per binding partner. As a reminder, the Kd is the equilibrium constant for the complex coming apart.

For the origin of these results see paper PMC10294627, “PhoPQ Regulates Quinolone and Cephalosporin Resistance Formation in Salmonella Enteritidis at the Transcriptional Level” (mBio, 2023).
